These results are taken from ChEMBL document CHEMBL4265965, “Dichloroacetophenones targeting at pyruvate dehydrogenase kinase 1 with improved selectivity and antiproliferative activity: Synthesis and structure-activity relationships” (Bioorg Med Chem Lett, 2018).

Active and inactive are the calls of the source. No cut-off for these calls is given here.

The test system of data set [1] is NCI-H1975. As to the kind of experiment: Antiproliferative activity against human NCI-H1975 cells assessed as inhibition of cell proliferation at 6 uM after 72 hrs by MTT assay relative to control. The format is functional. The note with it: NCI-H1975, 72 h. In general terms: Tetrazolium assays rely on reduction of a dye to a coloured formazan, in cell work by metabolically active cells.

The subject of data set [2] is A549. The data set is described as follows: Antiproliferative activity against human A549 cells assessed as inhibition of cell proliferation at 2 uM after 72 hrs by MTT assay relative to control. It is filed as functional. The note with it: A549, 72 h.
The subject of data set [3] is A549. The data set is described as follows: Antiproliferative activity against human A549 cells assessed as inhibition of cell proliferation at 6 uM after 72 hrs by MTT assay relative to control. It is filed as functional. As to conditions: A549, 72 h.
The subject of data set [4] is NCI-H1650. As to the kind of experiment: Antiproliferative activity against human NCI-H1650 cells assessed as inhibition of cell proliferation at 2 uM after 72 hrs by MTT assay relative to control. It is filed as functional. The note with it: NCI-H1650, 72 h.
For data set [5], the system named is A549. As to the kind of experiment: Antiproliferative activity against human A549 cells assessed as inhibition of cell proliferation at 12 uM after 72 hrs by MTT assay relative to control. It is filed as functional. As to conditions: A549, 72 h.
Data set [6] has as its system NCI-H1975. The data set is described as follows: Antiproliferative activity against human NCI-H1975 cells assessed as inhibition of cell proliferation at 2 uM after 72 hrs by MTT assay relative to control. The format is functional. The note with it: NCI-H1975, 72 h.
The test system of data set [7] is NCI-H1650. As to the kind of experiment: Antiproliferative activity against human NCI-H1650 cells assessed as inhibition of cell proliferation at 12 uM after 72 hrs by MTT assay relative to control. It is filed as functional. As to conditions: NCI-H1650, 72 h.
In data set [8] the target is T1, [Pyruvate dehydrogenase (acetyl-transferring)] kinase isozyme 1, mitochondrial (Homo sapiens, UniProt Q15118). The data set is described as follows: Inhibition of PDK1 in human NCI-H1975 cells assessed as reduction in pyruvate dehydrogenase phosphorylation at 10 uM after 24 hrs by Western blot analysis. The format is cell-based.
In data set [9] the test system is NCI-H1975. The data set is described as follows: Antiproliferative activity against human NCI-H1975 cells assessed as inhibition of cell proliferation after 72 hrs by MTT assay. The format is functional, cell-based. The note with it: NCI-H1975, 72 h.
Data set [10] has as its target T1, [Pyruvate dehydrogenase (acetyl-transferring)] kinase isozyme 1, mitochondrial. As to the kind of experiment: Inhibition of recombinant human N-terminal His6/Sumo-tagged PDK1 (29 to 436 residues) expressed in Escherichia coli BL21 at 1 uM by kinase-glo luminescence assay relative to control.
Data set [11] deals with NCI-H1650. The data set is described as follows: Antiproliferative activity against human NCI-H1650 cells assessed as inhibition of cell proliferation at 6 uM after 72 hrs by MTT assay relative to control. The note with it: NCI-H1650, 72 h. The format is functional.
The subject of data set [12] is NCI-H1975. As to the kind of experiment: Antiproliferative activity against human NCI-H1975 cells assessed as inhibition of cell proliferation at 12 uM after 72 hrs by MTT assay relative to control. It is filed as functional. As to conditions: NCI-H1975, 72 h.
Data set [13] has as its target T1, [Pyruvate dehydrogenase (acetyl-transferring)] kinase isozyme 1, mitochondrial. The data set is described as follows: Inhibition of PDK1 in human NCI-H1975 cells assessed as switch of pyruvate metabolism from lactate production to oxidative phosphorylation by measuring decrease in extracellular acidification rate at 10 uM pretreated for 4 hrs followed by oligomycin addition for 1 hr measured for 16 mins. The format is cell-based.

Data set [14] can be described thus: Inhibition of ERK phosphorylation in human NCI-H1975 cells at 10 uM after 24 hrs by Western blot analysis. The format is cell-based. As to conditions: nci-h1975, 24 h. A general note: A western blot detects proteins with antibodies after separation by electrophoresis.
Data set [15] has as its target T1, [Pyruvate dehydrogenase (acetyl-transferring)] kinase isozyme 1, mitochondrial. As to the kind of experiment: Inhibition of PDK1 in human NCI-H1975 cells assessed as switch of pyruvate metabolism from lactate production to oxidative phosphorylation by measuring increase in basal oxygen consumption rate at 10 uM incubated for 4 hrs followed by oligomycin addition for 1 hr measured for 16 mins. The format is cell-based.

The target of data set [16] is Epidermal growth factor receptor (Homo sapiens, UniProt P00533). As to the kind of experiment: Inhibition of EGFR phosphorylation in human NCI-H1975 cells at 10 uM after 24 hrs by Western blot analysis. The format is cell-based. The note with it: nci-h1975, 24 h.
Data set [17] has as its target T1, [Pyruvate dehydrogenase (acetyl-transferring)] kinase isozyme 1, mitochondrial. As to the kind of experiment: Inhibition of PDK1 in human NCI-H1975 cells assessed as switch of pyruvate metabolism from lactate production to oxidative phosphorylation by measuring increase in basal oxygen consumption rate at 10 uM incubated for 4 hrs followed by antimycinA addition for 1 hr measured for 16 mins. The format is cell-based.

Data set [18] has the same target. The data set is described as follows: Inhibition of PDK1 in human NCI-H1975 cells assessed as switch of pyruvate metabolism from lactate production to oxidative phosphorylation by measuring decrease in extracellular acidification rate at 10 uM pretreated for 4 hrs followed by glucose addition for 1 hr measured for 16 mins. The format is cell-based.
Data set [19] shares this target. The data set is described as follows: Binding affinity to recombinant human N-terminal His6/Sumo-tagged PDK1 (29 to 436 residues) expressed in Escherichia coli BL21.
Data set [20] shares this target. The data set is described as follows: Inhibition of PDK1 in human NCI-H1975 cells assessed as switch of pyruvate metabolism from lactate production to oxidative phosphorylation by measuring increase in basal oxygen consumption rate at 10 uM incubated for 4 hrs followed by FCCP addition for 1 hr measured for 16 mins. The format is cell-based.
Data set [21] shares this target. The data set is described as follows: Inhibition of PDK1 in human NCI-H1975 cells assessed as switch of pyruvate metabolism from lactate production to oxidative phosphorylation by measuring increase in basal oxygen consumption rate at 10 uM incubated for 4 hrs measured for 16 mins. It is filed as cell-based.
For data set [22], the target named is RAC-alpha serine/threonine-protein kinase (Homo sapiens, UniProt P31749). The data set is described as follows: Inhibition of AKT phosphorylation in human NCI-H1975 cells at 10 uM after 24 hrs by Western blot analysis. It is filed as cell-based. As to conditions: nci-h1975, 24 h.
Data set [23] has as its target T1, [Pyruvate dehydrogenase (acetyl-transferring)] kinase isozyme 1, mitochondrial. As to the kind of experiment: Inhibition of PDK1 in human NCI-H1975 cells assessed as switch of pyruvate metabolism from lactate production to oxidative phosphorylation by measuring decrease in extracellular acidification rate at 10 uM pretreated for 4 hrs followed by 2DG addition for 1 hr measured for 16 mins. It is filed as cell-based.

Chain of RAC-alpha serine/threonine-protein kinase (P31749 whole entry): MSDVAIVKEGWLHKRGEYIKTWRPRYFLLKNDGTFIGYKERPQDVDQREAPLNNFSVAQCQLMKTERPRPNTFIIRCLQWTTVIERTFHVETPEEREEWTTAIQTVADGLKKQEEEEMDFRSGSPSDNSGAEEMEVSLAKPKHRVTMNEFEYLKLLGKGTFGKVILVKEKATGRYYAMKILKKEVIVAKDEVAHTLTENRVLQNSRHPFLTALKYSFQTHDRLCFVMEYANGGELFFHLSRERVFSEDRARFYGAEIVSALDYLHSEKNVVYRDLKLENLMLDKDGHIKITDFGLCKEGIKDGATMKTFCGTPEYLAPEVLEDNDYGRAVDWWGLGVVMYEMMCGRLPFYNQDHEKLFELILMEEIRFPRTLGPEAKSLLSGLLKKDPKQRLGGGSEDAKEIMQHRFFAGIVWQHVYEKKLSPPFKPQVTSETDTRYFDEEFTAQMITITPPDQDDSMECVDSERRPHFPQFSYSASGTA
Chain of Epidermal growth factor receptor (P00533 whole entry): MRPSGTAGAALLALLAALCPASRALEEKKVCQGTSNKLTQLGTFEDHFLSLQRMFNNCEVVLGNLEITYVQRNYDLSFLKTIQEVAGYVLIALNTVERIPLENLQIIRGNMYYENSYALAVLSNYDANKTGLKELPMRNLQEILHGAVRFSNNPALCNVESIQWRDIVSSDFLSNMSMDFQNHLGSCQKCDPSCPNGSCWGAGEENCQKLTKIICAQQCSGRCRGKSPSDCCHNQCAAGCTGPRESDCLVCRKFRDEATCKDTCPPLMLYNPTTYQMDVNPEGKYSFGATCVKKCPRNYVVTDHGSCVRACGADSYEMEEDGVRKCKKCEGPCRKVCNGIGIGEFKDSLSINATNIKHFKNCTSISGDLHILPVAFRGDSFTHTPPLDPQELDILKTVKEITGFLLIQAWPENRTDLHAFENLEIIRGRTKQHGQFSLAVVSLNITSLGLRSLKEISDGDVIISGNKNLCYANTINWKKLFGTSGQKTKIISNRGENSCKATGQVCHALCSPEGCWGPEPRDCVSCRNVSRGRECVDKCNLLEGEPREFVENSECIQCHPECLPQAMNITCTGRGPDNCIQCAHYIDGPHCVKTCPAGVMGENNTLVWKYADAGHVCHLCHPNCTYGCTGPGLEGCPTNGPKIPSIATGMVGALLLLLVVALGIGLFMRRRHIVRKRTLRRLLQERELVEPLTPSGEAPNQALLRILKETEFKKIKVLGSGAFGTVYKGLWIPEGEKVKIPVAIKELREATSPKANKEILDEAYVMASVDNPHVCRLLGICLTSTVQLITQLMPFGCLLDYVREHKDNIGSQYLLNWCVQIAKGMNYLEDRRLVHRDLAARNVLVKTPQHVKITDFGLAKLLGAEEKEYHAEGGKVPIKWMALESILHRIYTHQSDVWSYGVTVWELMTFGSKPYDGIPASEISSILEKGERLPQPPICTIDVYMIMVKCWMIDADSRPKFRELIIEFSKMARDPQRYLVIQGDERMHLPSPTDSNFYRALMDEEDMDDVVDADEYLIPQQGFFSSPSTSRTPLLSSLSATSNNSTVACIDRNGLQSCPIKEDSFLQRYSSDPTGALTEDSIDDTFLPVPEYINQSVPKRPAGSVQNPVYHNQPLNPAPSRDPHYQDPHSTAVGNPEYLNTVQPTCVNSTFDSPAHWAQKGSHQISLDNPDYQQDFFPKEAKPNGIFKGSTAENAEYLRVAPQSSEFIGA
T1 sequence (Q15118 whole entry): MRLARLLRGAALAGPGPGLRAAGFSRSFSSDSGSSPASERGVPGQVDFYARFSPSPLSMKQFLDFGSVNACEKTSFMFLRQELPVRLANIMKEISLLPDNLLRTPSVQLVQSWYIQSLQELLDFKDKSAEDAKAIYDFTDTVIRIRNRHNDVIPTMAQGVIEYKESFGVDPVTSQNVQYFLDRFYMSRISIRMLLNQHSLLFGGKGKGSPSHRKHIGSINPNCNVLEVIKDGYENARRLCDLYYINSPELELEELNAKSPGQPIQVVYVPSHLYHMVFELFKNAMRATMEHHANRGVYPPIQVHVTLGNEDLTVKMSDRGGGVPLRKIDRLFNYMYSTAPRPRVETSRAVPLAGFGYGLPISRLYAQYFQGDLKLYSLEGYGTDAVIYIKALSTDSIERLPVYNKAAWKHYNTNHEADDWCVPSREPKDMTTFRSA

Usually inhibition stands for the relative decrease from the control value, in per cent. The IC50 is the midpoint of a concentration-inhibition curve. As to `CCCOc1ccc(C(=O)C(Cl)Cl)cc1`, the inhibition at 6 µM in the data set on NCI-H1975 [1] amounted to 93%; in the data set with A549 [3], 58.9%; in the data set with NCI-H1650 [11], 66%. Further, the inhibition at 2 µM with A549 [2] is 8.4%; with NCI-H1650 [4] it was 27.4%; in the data set on NCI-H1975 [6], 44.3%. For the same compound, the inhibition at 12 µM in the data set with A549 [5] worked out at 79.7%; with NCI-H1650 [7] it was 95.3%; in the data set on NCI-H1975 [12] it was 97.7%. In addition, the inhibition result in data set [8] was “Active”. Also, in the data set with NCI-H1975 [9], the IC50 turned out to be 2 µM. Also, the inhibition in data set [10] lay in the range of 19.7 to 67.9%.
With `CCCCCOc1ccc(C(=O)C(Cl)Cl)cc1`, the inhibition at 6 µM with NCI-H1975 [1] amounted to 96.6%; in the data set with A549 [3], 60.4%; in the data set on NCI-H1650 [11] it was 81.5%. Besides, the results for the inhibition at 2 µM in the data set on A549 [2], in the data set on NCI-H1650 [4] and in the data set on NCI-H1975 [6] were 20.2%, 32.8% and 57.5%, respectively. The figures for the inhibition at 12 µM in the data set on A549 [5], in the data set on NCI-H1650 [7] and in the data set with NCI-H1975 [12] were 85%, 98.2% and 98.5%, respectively. In addition, the inhibition entry in data set [8] is “Active”. Besides, the inhibition in data set [10] was 19.7 to 67.9%.
A word on the Kd: it is a measure of binding affinity in units of concentration. Turning to `CC(C)c1ccc(C(=O)C(Cl)Cl)cc1[N+](=O)[O-]`, the inhibition entry in data set [13], in data set [15], in data set [18], in data set [20], in data set [21] and in data set [23] was “Active” throughout. The inhibition at 6 µM in the data set on NCI-H1975 [1] was found to be 95%; in the data set on A549 [3], 75.9%; in the data set on NCI-H1650 [11], 90%. Moreover, the “inhibition (INH)” value in data set [14], in data set [16] and in data set [22] was “Not Active” in each case. The inhibition at 2 µM turned out to be 22.7% with A549 [2], 36.4% with NCI-H1650 [4] and 59.8% with NCI-H1975 [6]. Besides, the inhibition result in data set [17] was “inactive”. Moreover, the Kd in data set [19] was found to be 0.97 µM. In addition, the results for the inhibition at 12 µM in the data set with A549 [5], with NCI-H1650 [7] and in the data set with NCI-H1975 [12] were 96.5%, 100% and 99.5%, respectively. The half-maximal inhibitory concentration (IC50) with NCI-H1975 [9] is 1.59 µM. Moreover, the inhibition in [10] was found to be 75.1%.
Regarding `O=C(c1cccc(CCl)c1)C(Cl)Cl`, the inhibition at 6 µM worked out at 99.3% in the data set on NCI-H1975 [1], 99.5% in the data set with A549 [3] and 100% in the data set on NCI-H1650 [11]. Further, the inhibition at 2 µM stood at 73.3% in the data set with A549 [2], 97.6% in the data set on NCI-H1650 [4] and 99% in the data set on NCI-H1975 [6]. The inhibition at 12 µM in the data set with A549 [5] worked out at 100%; with NCI-H1650 [7] it was 100%; in the data set with NCI-H1975 [12], 99.5%. Further, the IC50 with NCI-H1975 [9] is 0.2 µM. For the same compound, in [10], the inhibition was 15.1%.
`CC1CCOc2ccc(C(=O)C(Cl)Cl)cc21` (centres undefined): the inhibition at 6 µM amounted to 98% in the data set on NCI-H1975 [1], 77.7% in the data set on A549 [3] and 67.3% in the data set with NCI-H1650 [11]. Besides, the inhibition at 2 µM in the data set on A549 [2] is 24.1%; in the data set with NCI-H1650 [4], 27%; in the data set with NCI-H1975 [6], 69.4%. In addition, the figures for the inhibition at 12 µM in the data set on A549 [5], in the data set on NCI-H1650 [7] and with NCI-H1975 [12] were 93.4%, 94.8% and 99.6%, respectively. Besides, the inhibition entry in data set [8] is “Active”. In addition, the inhibition in data set [10] was 19.7 to 67.9%.
For the compound `O=C(c1ccc(-c2ccccc2)cc1)C(Cl)Cl`, the inhibition at 6 µM amounted to 90.3% with NCI-H1975 [1], 75.9% in the data set with A549 [3] and 79.2% in the data set on NCI-H1650 [11]. The values for the inhibition at 2 µM with A549 [2], with NCI-H1650 [4] and in the data set with NCI-H1975 [6] were 22.5%, 42.2% and 56.3%, respectively. Moreover, the inhibition at 12 µM came out at 91.2% with A549 [5], 96.4% in the data set on NCI-H1650 [7] and 99.4% in the data set with NCI-H1975 [12]. Further, in [8], the inhibition entry was “Active”. In addition, in the data set on NCI-H1975 [9], the IC50 came to 2 µM. In data set [10], the inhibition lay in the range of 19.7 to 67.9%.
